Earlier results, collected in US20090155388A1, “WEIGHT PHYTO-NUTRACEUTICAL SYNERGISTIC COMPOSITION” (priority 2006, published 2009).

Assays:
[1] = third ventricle (i.c.v.) administration
[2] = 36 obese patients, maintenance period
[3] = 10 studies
[4] = test system: FAS (fatty acid synthase)
[5] = test system: bacterial resistance mechanism (multidrug pump); conditions: in vitro
[6] = female mice
[7] = 89 mildly overweight women
[8] = in vivo
lipoprotein lipase (LPL) = conditions: vanadate-stimulated

In the case of `C/C=C(\C)C(=O)O[C@@H]1C[C@H]2[C@@H](CC=C3C[C@@H](O[C@H]4C[C@H](OC)[C@H](O[C@H]5C[C@H](OC)[C@H](O[C@@H]6O[C@H](C)[C@@H](O)[C@H](OC)[C@H]6O)[C@@H](C)O5)[C@@H](C)O4)CC[C@@]32C)[C@@]2(O)CC[C@H](C(C)=O)[C@@]12C` [P57AS3], the “reduction of subsequent 24-h food intake” value [1] is listed as 40-60% and the “increase of ATP content” value (hypothalamic neurons) is listed as 50-150%.
In the case of Chromium picolinate, the insulin sensitivity (37 patients, with sulfonylurea agents) is given as “significantly improves insulin sensitivity”, the “body weight gain and visceral fat accumulation” value (compared with placebo) is given as “significantly attenuated body weight gain and visceral fat accumulation” and the lean body mass [2] is given as “able to increase lean body mass”. The “effect on reducing body weight compared with placebo” value [3] was “relatively small effect”.
For catechin gallate [(−)-CG], the “inhibition of FAS” value [4] is given as “very potent inhibitor of FAS”.
In the case of `COc1cc([C@H]2Oc3cc(-c4cc(=O)c5c(O)cc(O)cc5o4)cc(OC)c3O[C@@H]2CO)ccc1O` (racemic) [5′-methoxyhydnocarpin (5′-MHC), 5′-methoxyhydnocarpin], the “potentiation of activity of berberine alkaloids” value [5] is given as “strongly potentiated”.
In the case of `CNCCC(Oc1ccc(C(F)(F)F)cc1)c1ccccc1` (stereo not drawn) [fluoxetine], the “hyperphagic effect of 5-HT depletor, 5-HT1A agonist, 5-HT antagonist and glucose antimetabolite” value [6] is listed as “significantly antagonized”.
In the case of `O=C(O)CC(O)(C(=O)O)C(O)C(=O)O` (single isomer, unassigned; (-)) [(−)-Hydroxycitric acid (HCA), (−)-Hydroxycitric acid], the “reduction of body weight” value [7] is listed as “significantly greater reduction of body weight” and the “body weight, feed consumption, adverse effects” value [8] is listed as “significant decrease in body weight and reduction in feed consumption without any adverse effects”.
For `C[C@@H]1O[C@@H](O[C@H]2C(=O)c3c(O)cc(O)cc3O[C@@H]2c2ccc(O)c(O)c2)[C@H](O)[C@H](O)[C@H]1O` [Astilbin, astilbin], the “release of LPL activity” value (lipoprotein lipase (LPL)) is given as “enhanced the release of lipoprotein lipase (LPL) activity”.
